This note sets out measurements from patent US8895585B2, “Nicotinamide derivative or salt thereof” (FUJIFILM Corporation, priority 2010, dated 2014).

The assay deals with T1, glutathione S-transferase (GST)-fused full-length human Syk protein (Homo sapiens, UniProt P43405).
T1 construct: (GST)-fused full-length human Syk protein; GST (glutathione S-transferase); purchased Carna Biosciences
Put plainly: Syk enzyme assay. In kind it is biochemical. The settings on record: Syk enzyme assay, Test Example 1; read-out: IC50 of Syk-inhibitory activity. Summed up: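 IC50 values come from a time-resolved FRET readout (615 and 665 nm) of substrate phosphorylation, measured after an EDTA stop and 1 h antibody binding. The kinase reaction ran 40 min at room temperature with 27 μM ATP and 0.4 μM biotin-peptide, following a 15 min compound preincubation with baculovirus-made GST-full-length human Syk.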
Consider `Cn1ccc2c(Nc3nc(N[C@@H]4CCCC[C@@H]4N)c(F)cc3C(N)=O)cccc21` (relative stereo) [Example 006-059, 6-(cis-2-aminocyclohexylamino)-5-fluoro-2-((1-methyl-1H-indol-4-yl)amino)nicotinamide], for which the IC50 is less than 10 nM.

`NC(=O)c1cc(F)c(N[C@H](c2ccccc2)[C@@H](N)c2ccccc2)nc1Nc1ccc2ncccc2c1` (racemic) [Example 006-135, 6-(((1R,2S)-2-amino-1,2-diphenylethyl)amino)-5-fluoro-2-(quinolin-6-ylamino)nicotinamide 6-(((1S,2R)-2-amino-1,2-diphenylethyl)amino)-5-fluoro-2-(quinolin-6-ylamino)nicotinamide]: the IC50 was less than 10 nM.

Take `NC(=O)c1cc(F)c(N[C@@H](CO)Cc2ccccc2)nc1Nc1ccc2ncccc2c1` [Example 012-023]: the IC50 was 100 to 1000 nM.

Consider `NC(=O)c1cc(F)c(N[C@@H]2CCCC[C@@H]2N)nc1Nc1cncc(N2CCCC2=O)c1` [Example 004-107], for which the IC50 lay in the range of 10 to 50 nM.

With `NC(=O)c1cc(F)c(N[C@@H]2CCCC[C@@H]2N)nc1Nc1cncc(-c2ccc(F)cc2)c1` (relative stereo) [Example 004-145, 6-(cis-2-aminocyclohexylamino)-5-fluoro-2-((5-(4-fluorophenyl)pyridin-3-yl)amino)-nicotinamide], the IC50 is less than 10 nM.

As for `NC(=O)c1cc(F)c(NC2CCCCC2N)nc1Nc1ccc2cnn(CC3CC3)c2c1` (centres unmarked) [Example 002-046], the IC50 is less than 10 nM.

On to `NC(=O)c1cc(F)c(N[C@@H]2CCCC[C@@H]2N)nc1Nc1ccc(C(F)(F)F)nc1` (relative stereo) [Example 004-102, 6-(cis-2-aminocyclohexylamino)-5-fluoro-2-((6-(trifluoromethyl)pyridin-3-yl)amino)-nicotinamide], for which the IC50 fell in the range of 50 to 100 nM.

`NC(=O)c1cc(F)c(NC2CCCCC2N)nc1Nc1cncc(NC(=O)c2ccc3c(c2)OCCO3)c1` (centres unmarked) [Example 027-035]: the IC50 is 10 to 50 nM.

As to `CCCC[C@H](CN)Nc1nc(Nc2cnc(C)c(C)c2)c(C(N)=O)cc1F` [Example 006-341, (R)-6-((1-aminohexane-2-yl)amino)-2-((5,6-dimethylpyridin-3-yl)amino)-5-fluoronicotinamide], the IC50 lay in the range of 10 to 50 nM.

As for `COc1cc(Nc2nc(Nc3ccncc3)c(F)cc2C(N)=O)cc(OC)c1` [Example 016-020], the IC50 is 100 to 1000 nM.

Turning to `Cc1cc(Nc2nc(NC3CCCCC3N)c(F)cc2C(N)=O)cnc1N1CCOCC1` (centres unmarked) [Example 002-071], the half-maximal inhibitory concentration (IC50) was in the range of 10 to 50 nM.

`COCC(C)Oc1nccc2c(Nc3nc(N[C@@H]4CCCC[C@@H]4N)c(F)cc3C(N)=O)cccc12` (relative stereo) [Example 004-156, 6-(cis-2-aminocyclohexylamino)-5-fluoro-2-((1-((1-methoxypropan-2-yl)oxy)isoquinolin-5-yl)amino)nicotinamide]: the IC50 was less than 10 nM.

For the compound `NC(=O)c1cc(F)c(N[C@@H]2CCCC[C@@H]2N)nc1Nc1cccc2c1CNC2=O` [Example 004-009], the IC50 was less than 10 nM.

`COc1ncc(Nc2nc(N[C@@H]3CCCC[C@@H]3N)c(F)cc2C(N)=O)c2ccccc12` (relative stereo) [Example 004-153, 6-(cis-2-aminocyclohexylamino)-5-fluoro-2-((1-methoxyisoquinolin-4-yl)amino)-nicotinamide]: the IC50 lay within 100 to 1000 nM.

With `NC(=O)c1cc(F)c(N[C@@H]2CCCC[C@@H]2N)nc1Nc1cnc2cc(-n3nccn3)ccc2c1` (relative stereo) [Example 004-209, 2-((7-(2H-1,2,3-triazol-2-yl)quinolin-3-yl)amino)-6-(cis-2-aminocyclohexylamino)-5-fluoronicotinamide], the IC50 is less than 10 nM.

Take `COc1cc(Nc2nc(N[C@H](CC3CC3)[C@H](C)N)c(F)cc2C(N)=O)cc(OC)n1` [Example 006-349, 6-(((2R,3S)-3-amino-1-cyclopropylbutan-2-yl)amino)-2-((2,6-dimethoxypyridin-4-yl)amino)-5-fluoronicotinamide]: the IC50 is less than 10 nM.

Turning to `CCCC[C@H](CN)Nc1nc(Nc2ccc3c(cnn3C)c2)c(C(N)=O)cc1F` [Example 006-292, (R)-6-((1-aminohexan-2-yl)amino)-5-fluoro-2-((1-methyl-1H-indazol-5-yl)amino)nicotinamide], the IC50 is less than 10 nM.

As for `NCCNCCNc1nc(Nc2ccnc(-n3nccn3)c2)c(C(N)=O)cc1F` [Example 002-129], the IC50 is 100 to 1000 nM.

Regarding `NC(=O)c1cc(F)c(NC2CCCC[C@@H]2N)nc1Nc1ccnc2c1ccn2CC(=O)N1CCCCC1` (some centres unmarked) [Example 029-005], the IC50 is less than 10 nM.

As for `Cn1nc(N2CCOCC2)c2cc(Nc3nc(N[C@@H]4CCCC[C@@H]4N)c(F)cc3C(N)=O)ccc21` [Example 006-560, 6-(((1R,2S)-2-aminocyclohexyl)amino)-5-fluoro-2-((1-methyl-3-morpholino-1H-indazol-5-yl)amino)nicotinamide], the IC50 lay within 10 to 50 nM.

As for `NC[C@@H](Nc1nc(Nc2ccc3ncccc3c2)c(C(N)=O)cc1F)c1ccccn1` [Example 39-5, (R)-6-((2-amino-1-(pyridin-2-yl)ethyl)amino)-5-fluoro-2-((quinolin-6-yl)amino)nicotinamide], the 50% inhibitory concentration (IC50) fell in the range of 50 to 100 nM.

Turning to `NC(=O)c1cc(F)c(NCc2ncc[nH]2)nc1Nc1ccc2ncccc2c1` [Example 012-028], the IC50 fell in the range of 100 to 1000 nM.

Turning to `CCOc1nccc2cc(Nc3nc(N[C@@H]4CCCC[C@@H]4N)c(F)cc3C(N)=O)ccc12` (relative stereo) [Example 004-165, 6-(cis-2-aminocyclohexylamino)-2-((1-ethoxyisoquinolin-6-yl)amino)-5-fluoronicotinamide], the IC50 was less than 10 nM.

On to `CCNc1nc(Nc2cnc3ccccc3c2)c(C(N)=O)cc1F` [Example 006-020, 6-(ethylamino)-5-fluoro-2-(quinolin-3-ylamino)nicotinamide], for which the IC50 is 100 to 1000 nM.

Regarding `NC(=O)c1cc(F)c(NC2CCCCC2N)nc1Nc1cccc2c1cnn2CCN1CCCC1` (centres unmarked) [Example 002-026], the IC50 was less than 10 nM.

As to `CCCC[C@@H](Nc1nc(Nc2ccc3c(cnn3CC(F)F)c2)c(C(N)=O)cc1F)[C@H](C)N` [Example 006-425, 6-(((2S,3R)-2-aminoheptan-3-yl)amino)-2-((1-(2,2-difluoroethyl)-1H-indazol-5-yl)amino)-5-fluoronicotinamide], the IC50 fell in the range of 10 to 50 nM.

On to `NC(=O)c1cc(F)c(N[C@@H]2CCCC[C@@H]2N)nc1Nc1cncc(-c2ccccc2Cl)c1` (relative stereo) [Example 004-146, 6-(cis-2-aminocyclohexylamino)-2-((5-(2-chlorophenyl)pyridin-3-yl)amino)-5-fluoronicotinamide], for which the IC50 was less than 10 nM.

With `COCCn1cc2c(Nc3nc(NC4CCCCC4N)c(F)cc3C(N)=O)cccc2n1` (centres unmarked) [Example 002-034], the IC50 was less than 10 nM.

`CCCc1nn(C2CC2)c2ccc(Nc3nc(N[C@@H]4CCCC[C@@H]4N)c(F)cc3C(N)=O)cc12` [Example 006-479, 6-(((1R,2S)-2-aminocyclohexyl)amino)-2-((1-cyclopropyl-3-propyl-1H-indazol-5-yl)amino)-5-fluoronicotinamide]: the IC50 is less than 10 nM.
